Patent US8802661B2, “C-28 amides of modified C-3 betulinic acid derivatives as HIV maturation inhibitors” (priority 2010, dated 2014)
Counter-ions that a name gives are not always drawn. Like-named read-outs stand apart in the source and are kept apart here.

Test system: recombinant NL4-3 virus (Renilla luciferase in nef, Gag P373S)
Assay: HIV Cell Culture Assay (luciferase reporter virus in MT-2 cells)
Type: cell-based
Outline: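 Virus from 293T transfection, titered in MT-2 by luciferase. MT-2 (RPMI, 10% HI-FBS) infected ± inhibitor serial dilutions, 4-5 d. Readout: Dual Luciferase premix (lysis:reagent:Stop & Glo 2:1:1), immediate luminescence.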

C=C(C)[C@@H]1CC[C@]2(C(=O)NCCN(C)C)CC[C@]3(C)[C@H](CC[C@@H]4[C@@]5(C)CC=C(c6cc(F)c(C(=O)O)c(F)c6)C(C)(C)[C@@H]5CC[C@]43C)[C@@H]12 [Example 122, 4-((1R,3aS,5aR,5bR,7aR,11aS,11bR,13aR,13bR)-3a-(2-(dimethylamino)ethylcarbamoyl)-5a,5b,8,8,11a-pentamethyl-1-(prop-1-en-2-yl)-2,3,3a,4,5,5a,5b,6,7,7a,8,11,11a,11b,12,13,13a,13b-octadecahydro-1H-cyclopenta[a]chrysen-9-yl)-2,6-difluorobenzoic acid]
EC50 (NL43, read-out: EC50 Group): < 0.1 µM

C=C(C)[C@@H]1CC[C@]2(C(=O)NCCCN3CCS(=O)(=O)CC3)CC[C@]3(C)[C@H](CC[C@@H]4[C@@]5(C)CC=C(c6cc(F)c(C(=O)O)c(F)c6)C(C)(C)[C@@H]5CC[C@]43C)[C@@H]12 [Example 123, 4-((1R,3aS,5aR,5bR,7aR,11aS,11bR,13aR,13bR)-3a-((3-(1,1-dioxido-4-thiomorpholinyl)propyl)carbamoyl)-1-isopropenyl-5a,5b,8,8,11a-pentamethyl-2,3,3a,4,5,5a,5b,6,7,7a,8,11,11a,11b,12,13,13a,13b-octadecahydro-1H-cyclopenta[a]chrysen-9-yl)-2,6-difluorobenzoic acid]
EC50 (NL43, read-out: EC50 Group): < 0.1 µM

CC(C)[C@@H]1CC[C@]2(C(=O)NCCC(=O)O)CC[C@]3(C)[C@H](CC[C@@H]4[C@@]5(C)CC[C@H](c6ccc(C(=O)O)cc6)C(C)(C)[C@@H]5CC[C@]43C)[C@@H]12 [Example 124, 4-((1S,3aS,5aR,5bR,7aS,9S,11aS,11bR,13aR,13bR)-3a-(2-carboxyethylcarbamoyl)-1-isopropyl-5a,5b,8,8,11a-pentamethylicosahydro-1H-cyclopenta[a]chrysen-9-yl)benzoic acid]
EC50 (NL43, read-out: EC50 Group): < 0.1 µM

C=C(C)[C@@H]1CC[C@]2(C(=O)NCCN)CC[C@]3(C)[C@H](CC[C@@H]4[C@@]5(C)CC=C(c6ccc(C(=O)O)cc6)C(C)(C)[C@@H]5CC[C@]43C)[C@@H]12 [Example 125, 4-((1R,3aS,5aR,5bR,7aR,11aS,11bR,13aR,13bR)-3a-(2-aminoethylcarbamoyl)-5a,5b,8,8,11a-pentamethyl-1-(prop-1-en-2-yl)-2,3,3a,4,5,5a,5b,6,7,7a,8,11,11a,11b,12,13,13a,13b-octadecahydro-1H-cyclopenta[a]chrysen-9-yl)benzoic acid]
EC50 (NL43, read-out: EC50 Group): < 0.1 µM

C=C(C)[C@@H]1CC[C@]2(C(=O)NCc3ccoc3)CC[C@]3(C)[C@H](CC[C@@H]4[C@@]5(C)CC=C(c6ccc(C(=O)O)cc6)C(C)(C)[C@@H]5CC[C@]43C)[C@@H]12 [Example 126, 4-((1R,3aS,5aR,5bR,7aR,11aS,11bR,13aR,13bR)-3a-(furan-3-ylmethylcarbamoyl)-5a,5b,8,8,11a-pentamethyl-1-(prop-1-en-2-yl)-2,3,3a,4,5,5a,5b,6,7,7a,8,11,11a,11b,12,13,13a,13b-octadecahydro-1H-cyclopenta[a]chrysen-9-yl)benzoic acid]
EC50 (NL43, read-out: EC50 Group): < 0.1 µM

C=C(C)[C@@H]1CC[C@]2(C(=O)NCCC(=O)N3CCCC3C(=O)O)CC[C@]3(C)[C@H](CC[C@@H]4[C@@]5(C)CC=C(c6ccc(C(=O)O)cc6)C(C)(C)[C@@H]5CC[C@]43C)[C@@H]12 (stereo partly drawn) [Example 127, 1-(3-((1R,3aS,5aR,5bR,7aR,11aS,11bR,13aR,13bR)-9-(4-carboxyphenyl)-5a,5b,8,8,11a-pentamethyl-1-(prop-1-en-2-yl)-2,3,3a,4,5,5a,5b,6,7,7a,8,11,11a,11b,12,13,13a,13b-octadecahydro-1H-cyclopenta[a]chrysene-3a-carboxamido)propanoyl)pyrrolidine-2-carboxylic acid]
EC50 (NL43, read-out: EC50 Group): < 0.1 µM

C=C(C)[C@@H]1CC[C@]2(C(=O)N3CCCC3C(=O)O)CC[C@]3(C)[C@H](CC[C@@H]4[C@@]5(C)CC=C(c6ccc(C(=O)O)cc6)C(C)(C)[C@@H]5CC[C@]43C)[C@@H]12 (stereo partly drawn) [Example 128, 1-((1R,3aS,5aR,5bR,7aR,11aS,11bR,13aR,13bR)-9-(4-carboxyphenyl)-5a,5b,8,8,11a-pentamethyl-1-(prop-1-en-2-yl)-2,3,3a,4,5,5a,5b,6,7,7a,8,11,11a,11b,12,13,13a,13b-octadecahydro-1H-cyclopenta[a]chrysene-3a-carbonyl)pyrrolidine-2-carboxylic acid]
EC50 (NL43, read-out: EC50 Group): < 0.1 µM

C=C(C)[C@@H]1CC[C@]2(C(=O)NCCC(C)C)CC[C@]3(C)[C@H](CC[C@@H]4[C@@]5(C)CC=C(c6ccc(C(=O)O)cc6)C(C)(C)[C@@H]5CC[C@]43C)[C@@H]12 [Example 129, 4-((1R,3aS,5aR,5bR,7aR,11aS,11bR,13aR,13bR)-3a-(isopentylcarbamoyl)-5a,5b,8,8,11a-pentamethyl-1-(prop-1-en-2-yl)-2,3,3a,4,5,5a,5b,6,7,7a,8,11,11a,11b,12,13,13a,13b-octadecahydro-1H-cyclopenta[a]chrysen-9-yl)benzoic acid]
EC50 (NL43, read-out: EC50 Group): < 0.1 µM

C=C(C)[C@@H]1CC[C@]2(C(=O)NCCN3CCS(=O)(=O)CC3)CC[C@]3(C)[C@H](CC[C@@H]4[C@@]5(C)CC=C(c6ccc(B(O)O)cc6)C(C)(C)[C@@H]5CC[C@]43C)[C@@H]12 [Example 130, (4-((1R,3aS,5aR,5bR,7aR,11aS,11bR,13aR,13bR)-3a-((2-(1,1-dioxidothiomorpholino)ethyl)carbamoyl)-5a,5b,8,8,11a-pentamethyl-1-(prop-1-en-2-yl)-2,3,3a,4,5,5a,5b,6,7,7a,8,11,11a,11b,12,13,13a,13b-octadecahydro-1H-cyclopenta[a]chrysen-9-yl)phenyl)boronic acid, TFA]
EC50 (NL43): 0.0134 µM

C[C@H]1[C@H](C)CC[C@]2(C(=O)NCCN(C)C)CC[C@]3(C)C(=CC[C@@H]4[C@@]5(C)CC=C(c6ccc(C(=O)O)cc6)C(C)(C)[C@@H]5CC[C@]43C)[C@H]12 [Example A1, 4-((4aR,6aR,6bS,8aS,11R,12S,12aS,14aR,14bS)-8a-(2-(dimethylamino)ethylcarbamoyl)-4,4,6a,6b,11,12,14b-heptamethyl-1,4,4a,5,6,6a,6b,7,8,8a,9,10,11,12,12a,14,14a,14b-octadecahydropicen-3-yl)benzoic acid]
EC50 (NL43, read-out: EC50 Group): < 0.1 µM

C[C@H]1[C@H](C)CC[C@]2(C(=O)NCCCN3CCS(=O)(=O)CC3)CC[C@]3(C)C(=CC[C@@H]4[C@@]5(C)CC=C(c6ccc(C(=O)O)cc6)C(C)(C)[C@@H]5CC[C@]43C)[C@H]12 [Example A2, 4-((4aR,6aR,6bS,8aS,11R,12S,12aS,14aR,14bS)-8a-((3-(1,1-dioxido-4-thiomorpholinyl)propyl)carbamoyl)-4,4,6a,6b,11,12,14b-heptamethyl-1,4,4a,5,6,6a,6b,7,8,8a,9,10,11,12,12a,14,14a,14b-octadecahydro-3-picenyl)benzoic acid]
EC50 (NL43, read-out: EC50 Group): < 0.1 µM

CN(C)CCNC(=O)[C@]12CCC(C)(C)C[C@H]1C1=CC[C@@H]3[C@@]4(C)CC=C(c5ccc(C(=O)O)cc5)C(C)(C)[C@@H]4CC[C@@]3(C)[C@]1(C)CC2 [Example B1, 4-((4aR,6aR,6bS,8aS,12aS,14aR,14bS)-8a-(2-(dimethylamino)ethylcarbamoyl)-4,4,6a,6b,11,11,14b-heptamethyl-1,4,4a,5,6,6a,6b,7,8,8a,9,10,11,12,12a,14,14a,14b-octadecahydropicen-3-yl)benzoic acid]
EC50 (NL43, read-out: EC50 Group): < 0.1 µM

CC1(C)CC[C@]2(C(=O)NCCCN3CCS(=O)(=O)CC3)CC[C@]3(C)C(=CC[C@@H]4[C@@]5(C)CC=C(c6ccc(C(=O)O)cc6)C(C)(C)[C@@H]5CC[C@]43C)[C@@H]2C1 [Example B2, 4-((4aR,6aR,6bS,8aS,12aS,14aR,14bS)-8a-((3-(1,1-dioxido-4-thiomorpholinyl)propyl)carbamoyl)-4,4,6a,6b,11,11,14b-heptamethyl-1,4,4a,5,6,6a,6b,7,8,8a,9,10,11,12,12a,14,14a,14b-octadecahydro-3-picenyl)benzoic acid]
EC50 (NL43, read-out: EC50 Group): < 0.1 µM
